Measured values from US7605272B2, “IGF-1R inhibitor” (Kyowa Hakko Kirin Co., Ltd., priority 2005, dated 2009).
Like-named read-outs stand apart in the source and are kept apart here.

Legend:
KMS-11 = test: Cytostatic activity on human multiple myeloma cell line KMS-11 (WST-1); format: cell-based; details: Homo sapiens, 72 hours; for inhibition at 10 µM: 10 μmol/L, read-out: cytostatic rate (%) KMS-11 (10 μmol/L)
Procedure: (§1) The cytostatic rates of a test compound on human multiple myeloma cell lines NCI-H929 and KMS-11, were determined in the following manner.
(§2) For culturing NCI-H929, Roswell Park Memorial Institute's Medium (RPMI) 1640 (Gibco, Catalog No. 11875-093) containing 15% fetal bovine serum (Gibco, Catalog No. 10099-141), 1 mmol/L sodium pyruvate (Gibco, Catalog No. 11360-070), 10 mmol/L HEPES (Gibco, Catalog No. 15630-80), 4.5 g/L glucose (Sigma, Catalog No. G8769), 0.05 mmol/L 2-mercaptethanol (Nacalai Tesque, Catalog No. 21418-42) and penicillin/streptomycin (1:1) (Gibco, Catalog No. 15140-122) was used. For culturing KMS-11 cell, RPMI 1640 medium containing 10% fetal bovine serum and penicillin/streptomycin (1:1) was used. Each 80 μL of the NCI-H929 cell having a concentration of 1×10^5 cells/mL (or the KMS-11 cell having a concentration of 7.5×10^4 cells/mL) was inoculated to wells of a TC MICROWELL 96U plate (Nalge Nunc International, Catalog No. 163320) and was cultured in a 5% carbon dioxide gas incubator at 37° C. for 24 hours. Each 20 μL of a solution of the test compound in dimethyl sulfoxide (DMSO) which was prepared to make the final concentration to 1 μmol/L or 10 μmol/L, was added to each well. Each 20 μL of DMSO was added to the control well and the blank well to a final concentration of 0.1%. After adding the test compound, the cells were incubated in a 5% carbon dioxide gas incubator at 37° C. for 72 hours except for the blank well. After adding 20 μL of WST-1 reagent {4-[3-(4-iodophenyl)-2-(4-nitrophenyl)-2H-5-tetrazolio]-1,3-benzene disulfonate sodium salt} (Roche Diagnostics K.K., Catalog No. 1644807), which was diluted to 50% by RPMI medium to each well, the cells were further incubated at 37° C. for 2 hours. Then, the absorbances at 450 nm (reference wavelength: 690 nm) were measured with a microplate spectrophotometer SPECTRA max 340PC (Molecular Devices Corporation). The relative growth (%) of a well to which the test compound had been added and cultured for 72 hours was determined while setting the absorbance of a well to which not the test compound but DMSO alone had been added and cultured for 72 hours (control) as 100% and that of a well where the drugs are added (blank) as 0%. The cytostatic rate (%) of the test compound was determined by subtracting the calculated relative growth from 100.

IGF-1R = molecular target: T1, IGF-1R (Homo sapiens, UniProt P08069); test: IGF-1R inhibitory activity (kinase reaction, time-resolved fluoroimmunoassay); format: biochemical; details: test compound 10 μmol/L
T1 construct: purchased Upstate Co. 14-465
In short: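 Compounds were tested at a single 10 μmol/L concentration. Each was incubated with recombinant IGF-1R (200 μg/L), 10 mmol/L ATP, MgCl2/MnCl2 and Na3VO4 (pH 7.5) on immobilized poly(Glu-Tyr) peptide for 30 min at 24° C. Eu-anti-phosphotyrosine time-resolved fluorescence (340/615 nm) gave relative activity against no-compound and no-enzyme wells, reported as % inhibition.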

NCI-H929 = test: Cytostatic activity on human multiple myeloma cell line NCI-H929 (WST-1); format: cell-based; details: for inhibition at 1 µM / inhibition at 10 µM: Homo sapiens, NCI-H929, 72 h; for inhibition at 1 µM: read-out: cytostatic rate (%) H929 (1 μmol/L); for inhibition at 10 µM: 10 μmol/L, read-out: cytostatic rate (%) H929 (10 μmol/L)
Procedure: as §1, §2

[1] = IGF-1R active recombinant enzyme

T1 sequence (P08069 959-1367 limits assumed): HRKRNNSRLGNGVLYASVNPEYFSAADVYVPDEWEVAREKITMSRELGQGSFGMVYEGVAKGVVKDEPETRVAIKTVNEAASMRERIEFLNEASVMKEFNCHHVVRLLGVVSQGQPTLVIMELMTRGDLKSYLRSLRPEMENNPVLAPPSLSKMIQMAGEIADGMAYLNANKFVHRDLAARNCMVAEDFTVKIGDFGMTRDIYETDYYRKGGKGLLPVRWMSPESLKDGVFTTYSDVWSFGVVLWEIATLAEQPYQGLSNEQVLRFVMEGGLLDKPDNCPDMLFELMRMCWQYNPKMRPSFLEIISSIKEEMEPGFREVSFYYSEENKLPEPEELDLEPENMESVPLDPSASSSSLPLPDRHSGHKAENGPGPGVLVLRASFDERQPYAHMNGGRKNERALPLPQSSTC

| SMILES | inhibition at 10 µM (IGF-1R; [1]) | inhibition at 10 µM (KMS-11; KMS-11, 72 h) | inhibition at 10 µM (NCI-H929; 72 hours) | inhibition at 10 µM (IGF-1R) | also measured |
| --- | --- | --- | --- | --- | --- |
| CN[C@@H]1CN(CCCOc2ccc(/C=C/c3n[nH]c4ccccc34)c(NC(=O)c3sccc3C)c2OC)C[C@H]1OC (relative stereo) [Compound 348, (E)-N-(6-[2-(1H-indazol-3-yl)vinyl]-2-methoxy-3-{3-[(3R*,4R*)-3-methoxy-4-(methylamino)pyrrolidin-1-yl]propoxy}phenyl)-3-methylthiophene-2-carboxamide] | 109% |  |  |  | inhibition at 1 µM (KMS-11; KMS-11, 72 h, 1 μmol/L, read-out: cytostatic rate (%) KMS-11 (1 μmol/L)): 117%; inhibition at 1 µM (NCI-H929; 1 μmol/L, 72 hours): 116% |
| O=[N+]([O-])c1ccccc1/C=C/c1n[nH]c2ccccc12 [Compound 1, (E)-3-[2-(2-nitrophenyl)vinyl]-1H-indazole] | 71.2% | 80.2% | 105% |  |  |
| O=C(Nc1ccccc1/C=C/c1n[nH]c2ccccc12)c1ccc(F)cc1 [Compound 3, (E)-4-fluoro-N-{2-[2-(1H-indazol-3-yl)vinyl]phenyl}benzamide] | 99.1% | 118% | 115% |  |  |
| COc1ccc(C(=O)Nc2ccccc2/C=C/c2n[nH]c3ccccc23)cc1 [Compound 4, (E)-N-{2-[2-(1H-indazol-3-yl)vinyl]phenyl}-4-methoxybenzamide] | 98.5% | 130% | 114% |  |  |
| Cc1ccc(C(=O)Nc2ccccc2/C=C/c2n[nH]c3ccccc23)cc1 [Compound 5, (E)-N-{2-[2-(1H-indazol-3-yl)vinyl]phenyl}-4-methylbenzamide] | 99.1% | 129% | 116% |  |  |
| O=C(Nc1ccccc1/C=C/c1n[nH]c2ccccc12)c1cccnc1 [Compound 6, (E)-N-{2-[2-(1H-indazol-3-yl)vinyl]phenyl}nicotinamide] | 97.8% | 120% | 115% |  |  |
| O=C(Nc1ccccc1/C=C/c1n[nH]c2ccccc12)c1cccc(F)c1 [Compound 7, (E)-3-fluoro-N-{2-[2-(1H-indazol-3-yl)vinyl]phenyl}benzamide] | 98.6% | 121% | 115% |  |  |
| O=C(Nc1ccccc1/C=C/c1n[nH]c2ccccc12)c1ccccc1F [Compound 8, (E)-2-fluoro-N-{2-[2-(1H-indazol-3-yl)vinyl]phenyl}benzamide] | 99.5% | 126% | 118% |  |  |
| CC(=O)Nc1ccccc1/C=C/c1n[nH]c2ccccc12 [Compound 9, (E)-N-{2-[2-(1H-indazol-3-yl)vinyl]phenyl}acetamide] | 74.3% | 99.8% | 59% |  |  |
| O=C(Nc1ccccc1/C=C/c1n[nH]c2ccccc12)c1ccncc1 [Compound 10, (E)-N-{2-[2-(1H-indazol-3-yl)vinyl]phenyl}isonicotinamide] | 99.1% | 102% | 113% |  |  |
| O=C(Nc1ccccc1/C=C/c1n[nH]c2ccccc12)c1ccco1 [Compound 11, (E)-N-{2-[2-(1H-indazol-3-yl)vinyl]phenyl}furan-2-carboxamide] | 99.4% | 120% | 116% |  |  |
| COC(=O)c1ccc(/C=C/c2n[nH]c3ccccc23)c(NC(=O)c2sccc2C)c1 [Compound 97, (E)-4-[2-(1H-indazol-3-yl)vinyl]-3-[(3-methylthiophen-2-ylcarbonyl)amino]benzoic acid methyl ester] |  | 100% |  | 97.1% |  |
| Cc1ccsc1C(=O)Nc1cc(C(=O)N2CCNCC2)ccc1/C=C/c1n[nH]c2ccccc12 [Compound 99, (E)-N-{2-[2-(1H-indazol-3-yl)vinyl]-5-(piperazin-1-ylcarbonyl)phenyl}-3-methylthiophene-2-carboxamide] |  | 118% |  | 97.4% |  |
| CCN(CC)C(=O)c1ccc(/C=C/c2n[nH]c3ccccc23)c(NC(=O)c2sccc2C)c1 [Compound 101, (E)-N-{5-(N,N-diethylcarbamoyl)-2-[2-(1H-indazol-3-yl)vinyl]phenyl}-3-methylthiophene-2-carboxamide] |  |  |  | 100% | inhibition at 10 µM (KMS-11; KMS-11): 117% |
| Cc1ccsc1C(=O)Nc1ccc(OCCN2CCOCC2)cc1/C=C/c1n[nH]c2ccccc12 [Compound 103, (E)-N-{2-[2-(1H-indazol-3-yl)vinyl]-4-(2-morpholinoethoxy)phenyl}-3-methylthiophene-2-carboxamide] |  |  | 130% | 97% |  |
| Cn1cccc1C(=O)Nc1ccc(OCCN2CCOCC2)cc1/C=C/c1n[nH]c2ccccc12 [Compound 104, (E)-N-{2-[2-(1H-indazol-3-yl)vinyl]-4-(2-morpholinoethoxy)phenyl}-1-methylpyrrole-2-carboxamide] |  |  | 130% | 98.3% |  |
| Nc1ccc(C(=O)Nc2ccc(OCCN3CCOCC3)cc2/C=C/c2n[nH]c3ccccc23)s1 [Compound 106, (E)-5-amino-N-{2-[2-(1H-indazol-3-yl)vinyl]-4-(2-morpholinoethoxy)phenyl}thiophene-2-carboxamide] |  | 115% | 112% |  |  |
| CCCNC(=O)c1ccc(/C=C/c2n[nH]c3ccccc23)c(NC(=O)c2sccc2C)c1 [Compound 112, (E)-N-{2-[2-(1H-indazol-3-yl)vinyl]-5-(N-propylcarbamoyl)-phenyl}-3-methylthiophene-2-carboxamide] |  | 126% |  | 98.5% |  |
| CCN(C)C(=O)c1ccc(/C=C/c2n[nH]c3ccccc23)c(NC(=O)c2sccc2C)c1 [Compound 113, (E)-N-{5-(N-ethyl-N-methylcarbamoyl)-2-[2-(1H-indazol-3-yl)vinyl]phenyl}-3-methylthiophene-2-carboxamide] |  | 121% |  | 98.6% |  |
| Cc1ccsc1C(=O)Nc1cc2c(cc1/C=C/c1n[nH]c3ccccc13)OCO2 [Compound 130, (E)-N-{6-[2-(1H-indazol-3-yl)vinyl]benzo[1,3]dioxol-5-yl}-3-methylthiophene-2-carboxamide] |  |  | 126% | 98.3% |  |
| Cn1cccc1C(=O)Nc1cc2c(cc1/C=C/c1n[nH]c3ccccc13)OCO2 [Compound 131, (E)-N-{6-[2-(1H-indazol-3-yl)vinyl]benzo[1,3]dioxol-5-yl}-1-methylpyrrole-2-carboxamide] |  |  | 122% | 94.1% |  |
| CC(=O)N1CCN(c2ccccc2/C=C/c2n[nH]c3ccccc23)CC1 [Compound 133, (E)-4-acetyl-1-{2-[2-(1H-indazol-3-yl)vinyl]phenyl}piperazine] | 70.4% |  | 62.9% |  |  |
| OCc1ccn(-c2ccccc2/C=C/c2n[nH]c3ccccc23)c1 [Compound 168, (E)-1-{2-[2-(1H-indazol-3-yl)vinyl]phenyl}-1H-pyrrole-3-methanol] | 99% |  | 106% |  |  |
| O=C(Nc1cc(C(=O)N2CCN(CCO)CC2)ccc1/C=C/c1n[nH]c2ccccc12)c1ccccc1 [Compound 290] |  |  |  |  | inhibitory activity (%) at 10 μmol/L (IGF-1R; [1]): 95.7%; cytostatic rate (%) H929 (1 μmol/L) (NCI-H929; 1 μmol/L, 72 hours): 93.8% |
| COC1CCN(C(=O)c2ccc(/C=C/c3n[nH]c4ccccc34)c(N3Cc4c(N)cccc4C3=O)c2)CC1 [Compound 310, (E)-4-amino-2-{2-[2-(1H-indazol-3-yl)vinyl]-5-(4-methoxypiperidin-1-ylcarbonyl)phenyl}-2,3-dihydroisoindole-1-one] | 97.9% |  |  |  | inhibition at 1 µM (NCI-H929; NCI-H929 cells, test compound 1 μmol/L, WST-1): 105% |
